Measured values as given in article PMC6736568, “Discovery of Novel Anti-cryptosporidial Activities From Natural Products by in vitro High-Throughput Phenotypic Screening” (Frontiers in Microbiology, 2019).
Structures can show the parent of a compound that is named as a salt. Where two headings read alike, the source gives them in different places.

Assays:
Cryptosporidium parvum = experiment: qRT-PCR assay of the growth of C. parvum in vitro in HCT-8 host cells (primary and secondary screening, EC50); assay type: cell-based; details: Cryptosporidium parvum, HCT-8; for inhibition at 10 µM: primary screening at 10 uM, read-out: Inhibition (%); for inhibition at 3.3 µM: secondary screening at 3.3 uM, read-out: % Inhibition (3.3 uM)
[1] = primary screening at 10 uM, treated vs control

SMILES	inhibition at 10 µM (Cryptosporidium parvum) [%]	cytotoxicity at 41 h, 10 µM (in vitro; human) [%]	Hs18S ΔCT (HCT-8 host cells (Hs18S); human, 41 h, 10 μM)	cytotoxicity at 10 µM (in vitro) [%]	Hs18S ΔCT (HCT-8 host cells (Hs18S); [1])	cytotoxicity at 41 h, 10 µM (in vitro) [%]	inhibition at 3.3 µM (Cryptosporidium parvum) [%]
CC(C)c1c(O)ccc2c1CC[C@H]1C(C)(C)CCC[C@]21C [TOTAROL]	-9.45	-28.4	-0.36	–	–	–	–
O=c1cc(-c2ccccc2)oc2cc(O)ccc12 [7-HYDROXYFLAVONE]	9.24	–	–	10.8	0.17	–	–
CC(=O)O[C@H]1C[C@@H](OC(C)=O)C(C)(C)[C@@H]2C[C@@H](OC(C)=O)[C@]3(C)[C@H](CC[C@@]4(C)[C@H](c5ccoc5)OC(=O)[C@H]5O[C@@]534)[C@@]12C [KHIVORIN]	52.4	8	0.12	–	–	–	–
Cc1cc(O)c(C)c(O)c1C(=O)O [3-METHYLORSELLINIC ACID]	30.8	3.6	0.05	–	–	–	–
CC(C)(O)CC[C@@H](O)[C@](C)(O)[C@H]1CC[C@@]2(O)C3=CC(=O)[C@@H]4C[C@@H](O)[C@@H](O)C[C@]4(C)[C@H]3CC[C@]12C [CRUSTECDYSONE]	39.8	-10.6	–	–	-0.15	–	–
CC12CCC3C(CC3(C)C)C(C)(CCC1=O)O2 (stereo not drawn) [3,7-EPOXYCARYOPHYLLAN-6-ONE]	13.1	17	0.27	–	–	–	–
C[C@]12CC[C@@H]3c4ccc(O)cc4CC[C@H]3[C@@H]1CCC2=O [ESTRONE]	28.1	-18.4	-0.24	–	–	–	–
CC(C)=CC1C(C(=O)O)C1(C)C (stereo not drawn) [CHRYSANTHEMIC ACID]	-13.4	–	–	-24.6	-0.32	–	–
CC(=O)O[C@@H]1C[C@@]23C[C@@]24CC[C@H](O[C@@H]2OC[C@@H](O)[C@H](O)[C@H]2O)C(C)(C)[C@@H]4CC[C@H]3[C@]2(C)C[C@@H]3O[C@]4(C[C@@H](C)[C@@H]3[C@@]12C)O[C@H](O)[C@@]1(C)O[C@@H]41 [ACTEIN]	3.9	–	–	–	-0.41	-33.3	–
CC1=C(/C=C/C(C)=C/C=C/C(C)=C/C=C/C=C(C)/C=C/C=C(C)/C=C/C2=C(C)CCCC2(C)C)C(C)(C)CCC1 [beta-CAROTENE]	-34.8	2.8	0.04	–	–	–	–
CC(=O)Oc1cc(OC(C)=O)c2c(c1)O[C@H](c1ccc(OC(C)=O)c(OC(C)=O)c1)[C@@H](OC(C)=O)C2 [CATECHIN PENTAACETATE]	10.7	–	–	-19.6	-0.26	–	–
COc1c2occc2c(OC)c2c(=O)cc(C)oc12 [KHELLIN]	-11.8	14.1	0.22	–	–	–	–
C[C@H]1COC2=C1C(=O)C(=O)c1c2ccc2c1CCCC2(C)C [CRYPTOTANSHINONE]	95.3	–	–	11.9	0.18	–	-85
COC(=O)[C@@H]1C[C@H](OC(C)=O)C(=O)[C@H]2[C@@]1(C)CC[C@H]1C(=O)O[C@H](c3ccoc3)C[C@]21C [[…]]	16.7	–	–	30.5	0.53	–	–
COc1cc2c(cc1OC)-c1c(oc3c4c(ccc3c1=O)OC(C(C)C)C4)CO2 (stereo not drawn) [DEHYDRODIHYDROROTENONE]	-21.6	–	–	4.4	0.06	–	–
C=C(C)[C@@H]1CC[C@]2(CO)CC[C@]3(C)[C@H](CC[C@@H]4[C@@]5(C)CC[C@H](O)C(C)(C)[C@@H]5CC[C@]43C)[C@@H]12 [BETULIN]	36.9	–	–	-40.4	-0.49	–	–
CCCCCc1c2c(cc(O)c1C(=O)O)OC(=O)c1c(cc(OC)cc1C(=O)CCCC)O2 [LOBARIC ACID]	18.2	13.1	0.20	–	–	–	–
CC1/C(=N/O)C[C@@H]2C[C@H]1C2(C)C (stereo partly drawn) [3-PINANONE OXIME]	-6.18	1.5	0.02	–	–	–	–
OC[C@@H](O)[C@@H](O[C@@H]1O[C@H](CO)[C@@H](O)[C@H](O)[C@H]1O)[C@H](O)[C@@H](O)CO [GLUCITOL-4-GUCOPYANOSIDE]	4.89	-14.4	-0.19	–	–	–	–
O=C(O)c1ccc2c(c1)OCO2 [PIPERONYLIC ACID]	30.3	–	–	-3.1	-0.04	–	–
COc1c(CC(=O)c2cc3c(cc2O)OC(C)(C)C(O)C3)ccc2c1C=CC(C)(C)O2 (stereo not drawn) [DIHYDROMUNDULETONE]	4.35	-7.4	-0.10	–	–	–	–
Cc1[nH]c2ccccc2c1CN(C)C [2-METHYL GRAMINE]	0.92	-7.5	-0.11	–	–	–	–
CC(C)CCC[C@@H](C)[C@H]1CC[C@H]2[C@@H]3CC=C4CC(=O)CC[C@]4(C)[C@H]3CC[C@]12C [CHOLEST-5-EN-3-ONE]	-37.5	2.7	0.04	–	–	–	–
COc1cc(OC)c(-c2c(OC)cc(OC)cc2OC)c(OC)c1 [DIFUCOL HEXAMETHYL ETHER]	-10.9	–	–	5.1	0.08	–	–

SMILES	inhibition at 10 µM (Cryptosporidium parvum) [%]	cytotoxicity at 41 h, 10 µM (in vitro; human) [%]	Hs18S ΔCT (HCT-8 host cells (Hs18S); human, 41 h, 10 μM)	cytotoxicity at 10 µM (in vitro) [%]	Hs18S ΔCT (HCT-8 host cells (Hs18S); [1])	cytotoxicity at 41 h, 10 µM (in vitro) [%]	inhibition at 3.3 µM (Cryptosporidium parvum) [%]
CC(C)CCC[C@@H](C)[C@H]1CC[C@H]2[C@@H]3CC=C4C[C@@H](O)CC[C@]4(C)[C@H]3CC[C@]12C [CHOLESTEROL]	-26.8	–	-0.05	-3.8	–	–	–
O=C(CCc1ccc(O)cc1)c1c(O)cc(O)cc1O[C@@H]1O[C@H](CO)[C@@H](O)[C@H](O)[C@H]1O [PHLORIDZIN]	28.9	-5.8	-0.08	–	–	–	–
COc1cc2c(cc1OC)-c1cc3ccc(OC)c(OC)c3c[n+]1CC2 [PALMATINE CHLORIDE]	9.29	-6.1	-0.09	–	–	–	–
COc1cccc(-c2cc(=O)c3cc(OC)ccc3o2)c1 [6,3'-DIMETHOXYFLAVONE]	1.27	-5.6	-0.08	–	–	–	–
C[N+](C)(C)CC(=O)O [BETAINE HYDROCHLORIDE]	19.9	-30	-0.38	–	–	–	–
CN[C@@H]1[C@H](O[C@H]2[C@H](O[C@H]3[C@H](O)[C@@H](O)[C@H](NC(=N)N)[C@@H](O)[C@@H]3NC(=N)N)O[C@@H](C)[C@]2(O)CO)O[C@@H](CO)[C@H](O)[C@H]1O [DIHYDROSTREPTOMYCIN SULFATE]	18	3.4	–	–	0.05	–	–
CC(C)(C#N)O[C@@H]1O[C@H](CO)[C@@H](O)[C@H](O)[C@H]1O [LINAMARIN]	6.23	33.5	–	–	0.59	–	–
Oc1ccc2c(c1)OC[C@]1(O)Cc3cc(O)c(O)cc3[C@H]21 [BRAZILIN]	8.3	-8.9	-0.12	–	–	–	–
COc1cc2c(cc1OC)[C@@H]1C(=O)c3ccc4c(c3O[C@@H]1CO2)CC(C(C)C)O4 (stereo partly drawn) [DIHYDROROTENONE]	10.4	–	–	40.9	0.76	–	–
C=C[C@@H](C1=CC(=O)C(OC)=C(OC)C1=O)c1ccccc1 [3,4-DIMETHOXYDALBERGIONE]	11.6	3.8	0.06	–	–	–	–
CC(C)(O)[C@@H]1[C@H]2OC(=O)[C@@H]1[C@]1(O)C[C@H]3O[C@]34C(=O)O[C@H]2[C@]14C [PICROTIN]	-1.94	–	–	-14.8	-0.20	–	–
NCC(=O)c1ccccc1 [PHENACYLAMINE HYDROCHLORIDE]	9.11	57	1.22	–	–	–	–
O=C(/C=C/c1ccccc1)c1ccc(O)cc1O [2',4'-DIHYDROXYCHALCONE]	6.05	6.1	0.09	–	–	–	–
COc1ccc(C(C)=O)c(O)c1 [PAEONOL]	-10.4	0.8	0.01	–	–	–	–
CC(C)=CCC/C(C)=C\CO [NEROL]	-20.6	25.8	0.43	–	–	–	–
COC(=O)C[C@H]1C(C)(C)[C@@H](O)[C@@H]2CC3=C4CC(O)O[C@@H](c5ccoc5)[C@]4(C)CCC3[C@@]1(C)C2=O (stereo partly drawn) [3,16-DIDEOXYMEXICANOLIDE-3beta-DIOL]	87.5	-13.4	-0.18	–	–	–	52
COc1c(O)cc(O)cc1O [IRETOL]	-15	-24.7	-0.32	–	–	–	–
COc1ccc2c3c1O[C@H]1C[C@@H](O)C=C[C@@]31CCN(C)C2 [GALANTAMINE]	2.66	–	–	-26.2	-0.34	–	–
C/C(=C\C(=O)OCCCCCCCCC(=O)O)C[C@@H]1OC[C@H](C[C@@H]2O[C@H]2[C@@H](C)[C@H](C)O)[C@@H](O)[C@H]1O [MUPIROCIN]	45.6	5.8	0.09	–	–	–	–
C[C@@H]1CC[C@@]2(NC1)O[C@H]1C[C@H]3[C@@H]4CC=C5C[C@@H](O)CC[C@]5(C)[C@H]4CC[C@]3(C)[C@H]1[C@@H]2C [SOLASODINE]	-28.3	–	–	4.6	0.07	–	–
S=C=NCc1ccccc1 [BENZYL ISOTHIOCYANATE]	91.8	32.8	–	–	0.57	–	14
Cn1c(=O)c2[nH]cnc2n(C)c1=O [THEOPHYLLINE]	20.5	–	–	-22.6	-0.29	–	–
Cc1cc(O)c(C=O)c2c1C(=O)Oc1c(COC(=O)/C=C/C(=O)O)c(O)c(C(=O)O)c(C)c1O2 [FUMARPROTOCETRARIC ACID]	-5.48	6.9	0.10	–	–	–	–
